Source: patent US20250049035A1, “MICROBIOCIDAL BICYCLE HETEROCYCLIC DERIVATIVES” (SYNGENTA CROP PROTECTION AG, priority 2021, published 2025)

Columns and labels:
[1] = test system: Botryotinia fuckeliana (Botrytis cinerea); assay: Botryotinia fuckeliana (Botrytis cinerea) / liquid culture (gray mould); assay type: cell-based; details: liquid culture (Vogels broth), growth inhibition photometrically 3-4 days after application, compared to untreated control
Procedure: (§1) Example B2: Botryotinia fuckeliana (Botrytis cinerea)/Liquid Culture (Gray Mould) Conidia of the fungus from cryogenic storage are directly mixed into a nutrient broth (Vogels broth). After placing a DMSO solution of test compound into a microtiter plate (96-well format), the nutrient broth containing the fungal spores is added. The test plates are incubated at 24° C. and the inhibition of growth is determined photometrically 3-4 days after application.

[2] = test system: Glomerella lagenarium (Colletotrichum lagenarium); assay: Glomerella lagenarium (Colletotrichum lagenarium) / liquid culture (anthracnose); assay type: cell-based; details: Colletotrichum orbiculare, liquid culture (potato dextrose broth), growth inhibition photometrically 3-4 days after application, compared to untreated control
Procedure: as §1, with “B3: Glomerella lagenarium (Colletotrichum lagenarium)/Liquid” for “B2: Botryotinia fuckeliana (Botrytis cinerea)/Liquid”, “(Anthracnose)” for “(Gray Mould)”, “(potato dextrose” for “(Vogels”, “measured” for “determined”

[3] = test system: Blumeria graminis f. sp. tritici (Erysiphe graminis f. sp. tritici); assay: Blumeria graminis f. sp. tritici / wheat / leaf disc preventative (powdery mildew); assay type: in vivo; details: foliar, wheat leaf segments cv. Kanzler, inoculated 1 day after application, assessed 6-8 days after application, compared to untreated control
Procedure: Example B4: Blumeria graminis f. sp. tritici (Erysiphe graminis f. sp. tritici)/Wheat/Leaf Disc Preventative (Powdery Mildew on Wheat) Wheat leaf segments cv. Kanzler are placed on agar in a multiwell plate (24-well format) and sprayed with the formulated test compound diluted in water. The leaf disks are inoculated by shaking powdery mildew infected plants above the test plates 1 day after application. The inoculated leaf disks are incubated at 20° C. and 60% relative humidity under a light regime of 24 h darkness followed by 12 h light/12 h darkness in a climate chamber and the activity of a compound is assessed as percent disease control compared to untreated when an appropriate level of disease damage appears on untreated check leaf segments (6-8 days after application).

Fusarium culmorum = assay: microbe, parasite or virus in culture; assay type: cell-based; details: read-out: control of Fusarium culmorum
[4] = test system: Monographella nivalis (Microdochium nivale); assay: Monographella nivalis (Microdochium nivale) / liquid culture (foot rot cereals); assay type: cell-based; details: liquid culture (potato dextrose broth), growth inhibition photometrically 4-5 days after application, compared to untreated control
Procedure: as §1, with “B9: Monographella nivalis (Microdochium nivale)/Liquid” for “B2: Botryotinia fuckeliana (Botrytis cinerea)/Liquid”, “(Foot Rot Cereals)” for “(Gray Mould)”, “(potato dextrose” for “(Vogels”, “4-5” for “3-4”

[5] = test system: Mycosphaerella arachidis (Cercospora arachidicola); assay: Mycosphaerella arachidis (Cercospora arachidicola) / liquid culture (early leaf spot); assay type: cell-based; details: liquid culture (potato dextrose broth), growth inhibition photometrically 4-5 days after application, compared to untreated control
Procedure: as §1, with “B10: Mycosphaerella arachidis (Cercospora arachidicola)/Liquid” for “B2: Botryotinia fuckeliana (Botrytis cinerea)/Liquid”, “(Early Leaf Spot)” for “(Gray Mould)”, “(potato dextrose broth)” for “(Vogels broth).”, “4-5” for “3-4”

Sclerotinia sclerotiorum = Sclerotinia sclerotiorum / liquid culture (cottony rot); assay type: cell-based; details: liquid culture (potato dextrose broth), growth inhibition photometrically 3-4 days after application, compared to untreated control
Procedure: Example B14: Sclerotinia sclerotiorum/Liquid Culture (Cottony Rot) Mycelia fragments of a newly grown liquid culture of the fungus are directly mixed into a nutrient broth (potato dextrose broth). After placing a DMSO solution of test compound into a microtiter plate (96-well format) the nutrient broth containing the fungal material is added. The test plates are incubated at 24° C. and the inhibition of growth is determined photometrically 3-4 days after application.

[6] = test system: Mycosphaerella graminicola (Septoria tritici); assay: Mycosphaerella graminicola (Septoria tritici) / liquid culture (Septoria blotch); assay type: cell-based; details: Zymoseptoria tritici, liquid culture (potato dextrose broth), growth inhibition photometrically 4-5 days after application, compared to untreated control
Procedure: as §1, with “B15: Mycosphaerella graminicola (Septoria tritici/Liquid” for “B2: Botryotinia fuckeliana (Botrytis cinerea)/Liquid”, “(Septoria Blotch)” for “(Gray Mould)”, “(potato dextrose” for “(Vogels”, “4-5” for “3-4”

Alternaria solani = Alternaria solani / tomato / leaf disc (early blight); assay type: in vivo; details: foliar, tomato leaf disks cv. Baby, inoculated 2 days after application, assessed 5-7 days after application, compared to untreated control
Procedure: Example B1: Alternaria solani/Tomato/Leaf Disc (Early Blight) Tomato leaf disks cv. Baby are placed on agar in multiwell plates (24-well format) and sprayed with the formulated test compound diluted in water. The leaf disks are inoculated with a spore suspension of the fungus 2 days after application. The inoculated leaf disks are incubated at 23° C./21° C.

[7] = test system: Phaeosphaeria nodorum (Septoria nodorum); assay: Phaeosphaeria nodorum (Septoria nodorum) / wheat / leaf disc preventative (glume blotch); assay type: in vivo; details: Parastagonospora nodorum, foliar, wheat leaf segments cv. Kanzler, inoculated 2 days after application, assessed 5-7 days after application, compared to untreated control
Procedure: Example B8: Phaeosphaeria Nodorum (Septoria nodorum)/Wheat/Leaf Disc Preventative (Glume Blotch) Wheat leaf segments cv. Kanzler are placed on agar in a multiwell plate (24-well format) and sprayed with the formulated test compound diluted in water. The leaf disks are inoculated with a spore suspension of the fungus 2 days after application. The inoculated test leaf disks are incubated at 20° C. and 75% relative humidity under a light regime of 12 h light/12 h darkness in a climate cabinet and the activity of a compound is assessed as percent disease control compared to untreated when an appropriate level of disease damage appears in untreated check leaf disks (5-7 days after application).

Pyrenophora teres = Pyrenophora teres / barley / leaf disc preventative (net blotch); assay type: in vivo; details: foliar, barley leaf segments cv. Hasso, inoculated 2 days after application, assessed 5-7 days after application, compared to untreated control
Procedure: Example B12: Pyrenophora teres/Barley/Leaf Disc Preventative (Net Blotch) Barley leaf segments cv. Hasso are placed on agar in a multiwell plate (24-well format) and sprayed with the formulated test compound diluted in water. The leaf segments are inoculated with a spore suspension of the fungus 2 days after application. The inoculated leaf segments are incubated at 20° C. and 65% relative humidity under a light regime of 12 h light/12 h darkness in a climate cabinet and the activity of a compound is assessed as disease control compared to untreated when an appropriate level of disease damage appears in untreated check leaf segments (5-7 days after application).

Cc1c(C2CN(C(=O)c3nnc(-c4ccc(F)cc4F)s3)Cc3ccsc32)cnn1C (centres unmarked) [Compound P-7, [5-(2,4-difluorophenyl)-1,3,4-thiadiazol-2-yl]-[7-(1,5-dimethylpyrazol-4-yl)-6,7-dihydro-4H-thieno[3,2-c]pyridin-5-yl]methanone]
≥ 80%: inhibition of growth at 20 ppm [1] | inhibition of growth at 20 ppm [2] | pest or weed control at 200 ppm [3] | inhibition of growth at 20 ppm (Fusarium culmorum) | inhibition of growth at 20 ppm [4] | inhibition of growth at 20 ppm [5] | inhibition of growth at 20 ppm (Sclerotinia sclerotiorum) | inhibition of growth at 20 ppm [6]

C[C@H]1c2sccc2[C@@](C)(c2cnn(C)c2)CN1C(=O)c1cc(-c2ccc(F)cc2F)on1 (racemic) [Compound P-12, [5-(2,4-difluorophenyl)isoxazol-3-yl]-[rac-(4S,7R)-4,7-dimethyl-4-(1-methylpyrazol-4-yl)-5,7-dihydrothieno[2,3-c]pyridin-6-yl]methanone]
≥ 80%: pest or weed control at 200 ppm (Alternaria solani) | inhibition of growth at 20 ppm [1] | inhibition of growth at 20 ppm [2] | pest or weed control at 200 ppm [7] | inhibition of growth at 20 ppm [4] | inhibition of growth at 20 ppm [5] | inhibition of growth at 20 ppm (Sclerotinia sclerotiorum) | inhibition of growth at 20 ppm [6]

Cn1cc(C2(C)CN(C(=O)c3cc(-c4ccc(F)cc4F)on3)Cc3sccc32)cn1 (centres unmarked) [Compound P-19, [5-(2,4-difluorophenyl)isoxazol-3-yl]-[4-methyl-4-(1-methylpyrazol-4-yl)-5,7-dihydrothieno[2,3-c]pyridin-6-yl]methanone]
≥ 80%: pest or weed control at 200 ppm (Alternaria solani) | inhibition of growth at 20 ppm [1] | inhibition of growth at 20 ppm [2] | pest or weed control at 200 ppm [3] | pest or weed control at 200 ppm [7] | inhibition of growth at 20 ppm [5] | pest or weed control at 200 ppm (Pyrenophora teres) | inhibition of growth at 20 ppm (Sclerotinia sclerotiorum) | inhibition of growth at 20 ppm [6]

Cc1c(C2CN(C(=O)c3cc(-c4ccccc4F)on3)Cc3ccsc32)cnn1C (centres unmarked) [Compound P-35, [7-(1,5-dimethylpyrazol-4-yl)-6,7-dihydro-4H-thieno[3,2-c]pyridin-5-yl]-[5-(2-fluorophenyl)isoxazol-3-yl]methanone]
≥ 80%: pest or weed control at 200 ppm [3]

Cc1c(C2CN(C(=O)c3cc(-c4ccc(F)cc4F)on3)Cc3nnsc32)cnn1C (centres unmarked) [Compound P-27, [5-(2,4-difluorophenyl)isoxazol-3-yl]-[7-(1,5-dimethylpyrazol-4-yl)-6,7-dihydro-4H-thiadiazolo[4,5-c]pyridin-5-yl]methanone]
≥ 80%: pest or weed control at 200 ppm (Alternaria solani) | inhibition of growth at 20 ppm [2] | pest or weed control at 200 ppm [3] | pest or weed control at 200 ppm [7] | inhibition of growth at 20 ppm [4] | pest or weed control at 200 ppm (Pyrenophora teres) | inhibition of growth at 20 ppm [6]

Cc1c(C2CN(C(=O)c3cc(-c4ccc(F)cc4)on3)Cc3sccc32)cnn1C (centres unmarked) [Compound P-30, [4-(1,5-dimethylpyrazol-4-yl)-5,7-dihydro-4H-thieno[2,3-c]pyridin-6-yl]-[5-(4-fluorophenyl)isoxazol-3-yl]methanone]
≥ 80%: pest or weed control at 200 ppm (Alternaria solani) | inhibition of growth at 20 ppm [1] | inhibition of growth at 20 ppm [2] | pest or weed control at 200 ppm [7] | inhibition of growth at 20 ppm [4] | inhibition of growth at 20 ppm [5] | pest or weed control at 200 ppm (Pyrenophora teres) | inhibition of growth at 20 ppm (Sclerotinia sclerotiorum) | inhibition of growth at 20 ppm [6]

C[C@H]1c2sccc2[C@@H](c2cnn(C)c2)CN1C(=O)c1nnc(-c2ccc(F)cc2F)s1 (racemic) [Compound P-15, [5-(2,4-difluorophenyl)-1,3,4-thiadiazol-2-yl]-[rac-(4R,7S)-7-methyl-4-(1-methylpyrazol-4-yl)-5,7-dihydro-4H-thieno[2,3-c]pyridin-6-yl]methanone]
≥ 80%: pest or weed control at 200 ppm (Alternaria solani) | inhibition of growth at 20 ppm [1] | inhibition of growth at 20 ppm [2] | pest or weed control at 200 ppm [3] | inhibition of growth at 20 ppm (Fusarium culmorum) | pest or weed control at 200 ppm [7] | inhibition of growth at 20 ppm [5] | pest or weed control at 200 ppm (Pyrenophora teres) | inhibition of growth at 20 ppm [6]

Cn1cc(C2CN(C(=O)c3nnc(-c4ccc(F)cc4F)s3)Cc3sccc32)cn1 (centres unmarked) [Compound P-24, [5-(2,4-difluorophenyl)-1,3,4-thiadiazol-2-yl]-[4-(1-methylpyrazol-4-yl)-5,7-dihydro-4H-thieno[2,3-c]pyridin-6-yl]methanone]
≥ 80%: pest or weed control at 200 ppm (Alternaria solani) | inhibition of growth at 20 ppm [1] | inhibition of growth at 20 ppm [2] | inhibition of growth at 20 ppm (Fusarium culmorum) | pest or weed control at 200 ppm [7] | inhibition of growth at 20 ppm [4] | inhibition of growth at 20 ppm [5] | pest or weed control at 200 ppm (Pyrenophora teres) | inhibition of growth at 20 ppm (Sclerotinia sclerotiorum) | inhibition of growth at 20 ppm [6]

Cc1c(C2CN(C(=O)c3cc(-c4ccccc4F)on3)Cc3ccsc32)cnn1C (centres unmarked) [Compound P-34, [7-(1,5-dimethylpyrazol-4-yl)-6,7-dihydro-4H-thieno[3,2-c]pyridin-5-yl]-[5-(2-fluorophenyl)isoxazol-3-yl]methanone]
≥ 80%: pest or weed control at 200 ppm (Alternaria solani) | inhibition of growth at 20 ppm [1] | inhibition of growth at 20 ppm [2] | inhibition of growth at 20 ppm (Fusarium culmorum) | pest or weed control at 200 ppm [7] | inhibition of growth at 20 ppm [4] | inhibition of growth at 20 ppm [5] | pest or weed control at 200 ppm (Pyrenophora teres) | inhibition of growth at 20 ppm (Sclerotinia sclerotiorum) | inhibition of growth at 20 ppm [6]

C[C@H]1c2sccc2[C@@](C)(c2cnn(C)c2)CN1C(=O)c1nnc(-c2ccc(F)cc2F)s1 (racemic) [Compound P-10, [5-(2,4-difluorophenyl)-1,3,4-thiadiazol-2-yl]-[rac-(4S,7R)-4,7-dimethyl-4-(1-methylpyrazol-4-yl)-5,7-dihydrothieno[2,3-c]pyridin-6-yl]methanone]
≥ 80%: pest or weed control at 200 ppm (Alternaria solani) | inhibition of growth at 20 ppm [1] | inhibition of growth at 20 ppm [2] | inhibition of growth at 20 ppm (Fusarium culmorum) | pest or weed control at 200 ppm [7] | inhibition of growth at 20 ppm [4] | inhibition of growth at 20 ppm [5] | inhibition of growth at 20 ppm (Sclerotinia sclerotiorum) | inhibition of growth at 20 ppm [6]
